Test results as given in publication PMC5476196, “Uptake, biotransformation and elimination of selected pharmaceuticals in a freshwater invertebrate measured using liquid chromatography tandem mass spectrometry” (Chemosphere, 2017).
Values joined by “and” are separate entries in the source; they are usually repeats but may differ in a detail not shown here. Equal entries are not always repeated. “Also recorded” adds a separate entry of the source. Structures can show the parent of a compound that is named as a salt.

Key:
[1] = for Concentration, 24 h: exposure media after 24 h of exposure with Day 1 solution; for Concentration, 24 h / Concentration, Day 1 (initial pharmaceutical concentration on day 1): n = 3; for Concentration, 48 h: exposure media after 24 h of exposure with Day 2 solution, n = 3 (propranolol n = 2); for Concentration, Day 2 (initial pharmaceutical concentration on day 2): n = 2; for Concentration, Day 1 (initial pharmaceutical concentration on day 1): nominal 1 μg L^−1 (propranolol 10 μg L^−1); for stability of aqueous pharmaceutical concentration: across the exposure period
Description: (§1) Individual adult organisms (n = 25), both male and female (>5 mg wet weight) were placed in Pyrex glass beakers. G. pulex were carefully transferred to beakers using blunt forceps to avoid any harm to the organisms before exposure. Each beaker contained 25 organisms in 200 mL of exposure media (AFW and test compound). […] All exposure media contained <0.001% of organic solvent (methanol). A total of 300 organisms were used per compound exposure and were sampled for n = 3 per time-point. […] These were subsequently analysed for background contamination. […] Each animal specimen was rinsed with ultra-pure water and then frozen at −20 °C.
(§2) Water samples collected from exposure experiments were filtered using Whatman filters (0.2 μM) and directly injected onto the LC-MS/MS for analysis. For G. pulex, A mass of 50 mg of lyophilised and ground material was extracted by glass bead pulverisation in 5 mL of acetonitrile and diluted with 100 mL of ammonium acetate buffer (10 mM) for loading onto Waters HLB solid phase extraction (SPE) cartridges (6 cc, 200 mg sorbent).

Gammarus pulex [2] = assay: Biotransformation products in G. pulex after exposure to propranolol, carbamazepine or diazepam (LC-MS/MS); conditions: for detection of biotransformation product in G. pulex at 96 h: after exposure to the precursor compound, end of depuration; for k2 of biotransformation product: depuration phase
Description: as §1
(§3) Briefly, separations were performed on an Agilent HP1100 LC system configured with a Waters SunFire reversed-phase C18 column (150 mm × 2.1 mm, 2.5 μM particle size). […] Detection was performed using a Waters Quattro triple quadrupole mass spectrometer with electrospray ionisation operated in positive and negative polarity switching mode. Quantification of analytes was performed using 3-point internal standard matrix-matched calibration using the peak area ratio of non-labelled analyte (precursor range: 50–300 ng g^−1, biotransformation product range: 50–150 ng g^−1) to the stable isotope labelled internal standard (SIL-IS) (100 ng g^−1).
A matrix effect and recovery experiment was performed for these additional analytes before exposures were performed (SI Table S5).

Gammarus pulex [3] = assay: in vivo; conditions: for BCFss: steady-state BCF estimation, 48 h
Description: as §1, §2, §3
(§4) Herein, the authors define BCFtotal as the summation of the BCF of both parent/precursor and biotransformation products (i.e. the total body burden). Whereas, BCFparent will be used to describe the BCF determined for the parent compound alone.

sturgeons = test system: sturgeons; set-up: method as in Hou et al., 2003; conditions: ref Hou et al., 2003; cited from earlier work
Gammarus fossarum = conditions: ref Sordet et al., 2016; cited from earlier work
G. pulex = conditions: ref Miller et al., 2016, cited from earlier work; for SeqBCF, Full Design: sequential BCF; for SeqBCF^a, Full Design: sequential estimation using minitab; for SimBCF, Full Design: simultaneous BCF
in vivo = conditions: both, Gammarus pulex, in vivo, G. pulex; for concentration at 6 h: 6h Mean; for concentration at 24 h: 24h Mean
Description: as §1, §2, §3, §4

[4] = test system: Pimephales notatus and I. punctatus; set-up: method as in Garcia et al., 2012; conditions: depending on tissue; ref Garcia et al., 2012; cited from earlier work
[5] = test system: Mytilus galloprovincialis; conditions: ref Gomez et al., 2012; cited from earlier work
[6] = pH 8.19, Concentration, n=3, exposure 1 μg L^−1 (warfarin, propranolol 10 μg L^−1)
[7] = pH 8.19, Concentration, 48h Mean, n=3, exposure 1 μg L^−1 (warfarin, propranolol 10 μg L^−1)
[8] = pH 8.19, internal concentration at the end of the uptake phase, 48 h, exposure 1 μg L^−1 (propranolol 10 μg L^−1)
[9] = both, Gammarus pulex, in vivo, pH 8.19
[10] = k1 re-calculated over time intervals of the uptake phase
[11] = sequential, Levenberg-Marquardt algorithm, exposure 1 μg L^−1 (warfarin, propranolol 10 μg L^−1)
[12] = sequential, linear regression on elimination data, exposure 1 μg L^−1 (warfarin, propranolol 10 μg L^−1)
[13] = simultaneous parametrisation, exposure 1 μg L^−1 (warfarin, propranolol 10 μg L^−1)

CC(C)NCC(O)COc1cccc2ccccc12 (stereo not drawn) [Propranolol, Propranolol hydrochloride]
Concentration, 24 h [1]: 8.92 ng/mL | Concentration, 48 h [1]: 6.41 μg L^−1 and 6.41 ^a μg L^−1 | decline of aqueous concentration ([1]; exposure media, after the first 24 h): 29% | Concentration, Day 2 (initial pharmaceutical concentration on day 2) ([1]; exposure media): 8.98 ng/mL | Concentration, Day 1 (initial pharmaceutical concentration on day 1) ([1]; exposure media): 9.22 ng/mL

NC(=O)N1c2ccccc2C2OC2c2ccccc21 (stereo not drawn) [carbamazepine-10,11-epoxide]
detection of biotransformation product in G. pulex at 96 h (Gammarus pulex [2]): not detected | detection of biotransformation product in G. pulex (Gammarus pulex [2]; carbamazepine exposure, 24 h and 48 h): detection | quantifiability of biotransformation product in G. pulex (Gammarus pulex [2]; carbamazepine exposure, signals below signal to noise ratio of 10:1): not quantifiable

Cc1cc(C)nc(NS(=O)(=O)c2ccc(N)cc2)n1 [Sulfamethazine, sulfamethazine]
detection of parent compound in G. pulex samples (Gammarus pulex [3]; exposure 1 μg L^−1): not detected in any sample; also recorded: no peaks were detected | stability of aqueous pharmaceutical concentration [1]: remained stable | Concentration, 24 h [1]: 0.99 ng/mL | Concentration, 48 h [1]: 0.71 µg/L | Concentration, Day 2 (initial pharmaceutical concentration on day 2) ([1]; exposure media): 0.89 ng/mL | Concentration, Day 1 (initial pharmaceutical concentration on day 1) ([1]; exposure media): 1.06 ng/mL | BCF in sturgeons (sturgeons): 1 L/kg

O=C1Nc2ccc(Cl)cc2C(c2ccccc2)=NC1O (stereo not drawn) [oxazepam]
reduction of mean internal concentration over the 48 h depuration period (Gammarus pulex [2]; G. pulex, diazepam exposure): 21 ng g^−1 dw | k2 of biotransformation product (Gammarus pulex [2]; G. pulex, diazepam exposure): 0.009 day⁻¹ | BCF in Gammarus fossarum (Gammarus fossarum): 22 L/kg

CC(C)(C)NCC(O)c1cc(O)cc(O)c1 (stereo not drawn) [Terbutaline]
SeqBCF, Full Design (G. pulex): 19 | SeqBCF^a, Full Design (G. pulex): 22 | SimBCF, Full Design (G. pulex): 12

NC(=O)N1c2ccccc2C=Cc2ccccc21 [Carbamazepine, carbamazepine]
concentration at 6 h (in vivo; [6]): 8 ng/g | concentration at 24 h (in vivo; [6]): 11 ng/g | concentration at 48 h (in vivo; [7]): 14 ng/g | concentration at 48 h (in vivo; [8]): ≤ 51 ng/g | BCFparent from the average of k1 over the 48 h time interval (Gammarus pulex [3]; [9]): 26 L/kg | stability of aqueous pharmaceutical concentration [1]: remained stable | Concentration, 24 h [1]: 1.01 ng/mL | Concentration, 48 h [1]: 1.07 µg/L | Concentration, Day 2 (initial pharmaceutical concentration on day 2) ([1]; exposure media): 1.08 ng/mL | Concentration, Day 1 (initial pharmaceutical concentration on day 1) ([1]; exposure media): 1.12 ng/mL | BCF in two species of fish (Pimephales notatus and I. punctatus) [4]: < 7 L/kg | BCF in Gammarus fossarum (Gammarus fossarum): 5 L/kg

O=C1CN=C(c2ccccc2)c2cc(Cl)ccc2N1 [nordiazepam]
concentration of biotransformation product (higher than the parent compound) (Gammarus pulex [2]; G. pulex, diazepam exposure): 94 ng g^−1 dw | k2 of biotransformation product (Gammarus pulex [2]; G. pulex, diazepam exposure): 0.0194 day⁻¹ | mean concentration of biotransformation product reached (Gammarus pulex [2]; G. pulex, diazepam exposure, time not stated): 64 ± 27 ng g^−1 dw

CN1C(=O)CN=C(c2ccccc2)c2cc(Cl)ccc21 [Diazepam, diazepam]
concentration at 6 h (in vivo; [6]): 31 ng/g | concentration at 24 h (in vivo; [6]): 37 ng/g | BCFparent from the average of k1 over the 48 h time interval (Gammarus pulex [3]; [10]): 48 L/kg | BCFparent, Sequential a (Gammarus pulex [3]; [11]): 58 L/kg | k1, Sequential a (Gammarus pulex [3]; [11]): 2.6469 | k2, Sequential a (Gammarus pulex [3]; [11]): 0.046 | BCFparent, Sequential b (Gammarus pulex [3]; [12]): 53 L/kg | k1, Sequential b (Gammarus pulex [3]; [12]): 3.0917 | k2, Sequential b (Gammarus pulex [3]; [12]): 0.0582 | BCFparent, Simultaneous (Gammarus pulex [3]; [13]): 41 L/kg | k2 (depuration rate constant), Simultaneous (Gammarus pulex [3]; [13]): 0.2349 | BCFss (Gammarus pulex [3]): 45 | Concentration, 24 h [1]: 0.86 ng/mL | Concentration, 48 h [1]: 0.89 µg/L | Concentration, Day 2 (initial pharmaceutical concentration on day 2) ([1]; exposure media): 1.04 ng/mL | Concentration, Day 1 (initial pharmaceutical concentration on day 1) ([1]; exposure media): 1.02 ng/mL | BCF in marine mussel Mytilus galloprovincialis [5]: 51 L/kg

O=C(O)Cc1ccccc1Nc1c(Cl)cccc1Cl [Diclofenac]
SeqBCF, Full Design (G. pulex): 21 | SeqBCF^a, Full Design (G. pulex): 27 | SimBCF, Full Design (G. pulex): 14

COc1ccc(CC(C)NCC(O)c2ccc(O)c(NC=O)c2)cc1 (stereo not drawn) [Formoterol]
SeqBCF, Full Design (G. pulex): 33 | SeqBCF^a, Full Design (G. pulex): 18 | SimBCF, Full Design (G. pulex): 14

COCCc1ccc(OCC(O)CNC(C)C)cc1 (racemic) [Metoprolol, (±)-metoprolol (+)-tartrate salt]
concentration at 48 h (in vivo; [8]): ≤ 51 ng/g | BCFparent, Sequential a (Gammarus pulex [3]; [9]): 39 L/kg | BCFparent, Sequential b (Gammarus pulex [3]; [9]): 37 L/kg | BCFparent, Simultaneous (Gammarus pulex [3]; [9]): 17 L/kg | k1 (uptake rate constant), Simultaneous (Gammarus pulex [3]; [9]): 0.4413 | k1, Sequential a (Gammarus pulex [3]; [9]): 0.2788 | k1, Sequential b (Gammarus pulex [3]; [9]): 0.2855 | k2 (depuration rate constant), Simultaneous (Gammarus pulex [3]; [9]): 0.0259 | k2, Sequential a (Gammarus pulex [3]; [9]): 0.0071 | k2, Sequential b (Gammarus pulex [3]; [9]): 0.0078 | BCFss (Gammarus pulex [3]): 9 | stability of aqueous pharmaceutical concentration [1]: remained stable | Concentration, 24 h [1]: 0.72 ng/mL | Concentration, 48 h [1]: 0.87 µg/L | Concentration, Day 2 (initial pharmaceutical concentration on day 2) ([1]; exposure media): 0.86 ng/mL | Concentration, Day 1 (initial pharmaceutical concentration on day 1) ([1]; exposure media): 0.77 ng/mL

COc1cc(Cc2cnc(N)nc2N)cc(OC)c1OC [Trimethoprim]
Concentration, 24 h [1]: 1.01 ng/mL | Concentration, 48 h [1]: 0.97 µg/L | Concentration, Day 2 (initial pharmaceutical concentration on day 2) ([1]; exposure media): 0.99 ng/mL | Concentration, Day 1 (initial pharmaceutical concentration on day 1) ([1]; exposure media): 1.09 ng/mL

CN(C)CCCN1c2ccccc2CCc2ccccc21 [Imipramine]
SeqBCF, Full Design (G. pulex): 4533 | SeqBCF^a, Full Design (G. pulex): 3811 | SimBCF, Full Design (G. pulex): 212

CN1C(=O)C(O)N=C(c2ccccc2)c2cc(Cl)ccc21 (stereo not drawn) [Temazepam, temazepam]
concentration at 6 h (in vivo; [6]): 20 ng/g | concentration at 24 h (in vivo; [6]): 32 ng/g | concentration at 48 h (in vivo; [7]): 38 ng/g | concentration at 48 h (in vivo; [8]): ≤ 51 ng/g | BCFparent from the average of k1 over the 48 h time interval (Gammarus pulex [3]; [10]): 40 L/kg | BCFparent, Sequential a (Gammarus pulex [3]; [11]): 41 L/kg | k1, Sequential a (Gammarus pulex [3]; [11]): 2.8514 | k2, Sequential a (Gammarus pulex [3]; [11]): 0.0702 | BCFparent, Sequential b (Gammarus pulex [3]; [12]): 41 L/kg | k1, Sequential b (Gammarus pulex [3]; [12]): 2.751 | k2, Sequential b (Gammarus pulex [3]; [12]): 0.0669 | BCFparent, Simultaneous (Gammarus pulex [3]; [13]): 37 L/kg | k1 (uptake rate constant), Simultaneous (Gammarus pulex [3]; [13]): 4.3326 | k2 (depuration rate constant), Simultaneous (Gammarus pulex [3]; [13]): 0.1186 | BCFss (Gammarus pulex [3]): 38 | stability of aqueous pharmaceutical concentration [1]: remained stable | Concentration, 24 h [1]: 0.85 ng/mL | Concentration, 48 h [1]: 1.03 µg/L | Concentration, Day 2 (initial pharmaceutical concentration on day 2) ([1]; exposure media): 1.17 ng/mL | Concentration, Day 1 (initial pharmaceutical concentration on day 1) ([1]; exposure media): 0.96 ng/mL | mean concentration of biotransformation product at 48 h (end of the uptake phase) (Gammarus pulex [2]; G. pulex, after exposure to the precursor compound (propranolol 10 μg L^−1, diazepam 1 μg L^−1)): 6 ± 3 ng g^−1 dw | k2 of biotransformation product (Gammarus pulex [2]; G. pulex, diazepam exposure): 0.016 day⁻¹ | detection of biotransformation product in G. pulex at 96 h (Gammarus pulex [2]): not detectable
